Measurements: patent publication US12202843B2, “Muscarinic receptor agonists” (Nxera Pharma UK Limited, priority 2014, dated 2025)

Key:
[1] = target: T1, human muscarinic M2 receptor (Homo sapiens, UniProt P08172); assay: Alphascreen Surefire phospho-ERK1/2 functional assay, M2; format: cell-based
T1 sequence (P08172 1-466): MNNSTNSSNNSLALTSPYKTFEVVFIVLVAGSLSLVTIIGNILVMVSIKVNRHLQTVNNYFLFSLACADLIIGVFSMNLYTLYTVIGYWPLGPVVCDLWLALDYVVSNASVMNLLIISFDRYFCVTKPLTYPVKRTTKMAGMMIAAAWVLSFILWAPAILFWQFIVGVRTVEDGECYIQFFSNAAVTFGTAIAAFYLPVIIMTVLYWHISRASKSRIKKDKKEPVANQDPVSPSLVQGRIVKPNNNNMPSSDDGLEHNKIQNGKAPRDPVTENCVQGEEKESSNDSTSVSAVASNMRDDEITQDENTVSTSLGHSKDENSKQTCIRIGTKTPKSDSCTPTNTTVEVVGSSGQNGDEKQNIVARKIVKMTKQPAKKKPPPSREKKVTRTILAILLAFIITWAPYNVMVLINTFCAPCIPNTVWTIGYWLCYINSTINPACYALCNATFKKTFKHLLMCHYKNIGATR

[2] = target: T2, human muscarinic M4 receptor (Homo sapiens, UniProt P08173); assay: Alphascreen Surefire phospho-ERK1/2 functional assay, M4; format: cell-based
T2 construct: expressed in transfected cells
T2 sequence (P08173 1-479): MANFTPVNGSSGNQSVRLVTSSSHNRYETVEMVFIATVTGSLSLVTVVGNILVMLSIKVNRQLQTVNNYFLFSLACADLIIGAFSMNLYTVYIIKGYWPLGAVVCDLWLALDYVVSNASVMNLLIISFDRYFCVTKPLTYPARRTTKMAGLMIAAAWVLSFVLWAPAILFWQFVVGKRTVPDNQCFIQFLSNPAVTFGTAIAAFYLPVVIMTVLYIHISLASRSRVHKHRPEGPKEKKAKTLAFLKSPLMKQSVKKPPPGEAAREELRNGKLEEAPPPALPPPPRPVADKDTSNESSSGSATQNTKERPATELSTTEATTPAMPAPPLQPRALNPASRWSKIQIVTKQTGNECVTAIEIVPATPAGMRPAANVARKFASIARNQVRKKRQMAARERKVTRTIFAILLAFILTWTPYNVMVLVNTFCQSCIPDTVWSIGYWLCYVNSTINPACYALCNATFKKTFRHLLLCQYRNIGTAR

[3] = target: T3, human muscarinic M3 receptor (Homo sapiens, UniProt P20309); assay: Alphascreen Surefire phospho-ERK1/2 functional assay, M3; format: cell-based
T3 construct: expressed in transfected cells
T3 sequence (P20309 whole entry): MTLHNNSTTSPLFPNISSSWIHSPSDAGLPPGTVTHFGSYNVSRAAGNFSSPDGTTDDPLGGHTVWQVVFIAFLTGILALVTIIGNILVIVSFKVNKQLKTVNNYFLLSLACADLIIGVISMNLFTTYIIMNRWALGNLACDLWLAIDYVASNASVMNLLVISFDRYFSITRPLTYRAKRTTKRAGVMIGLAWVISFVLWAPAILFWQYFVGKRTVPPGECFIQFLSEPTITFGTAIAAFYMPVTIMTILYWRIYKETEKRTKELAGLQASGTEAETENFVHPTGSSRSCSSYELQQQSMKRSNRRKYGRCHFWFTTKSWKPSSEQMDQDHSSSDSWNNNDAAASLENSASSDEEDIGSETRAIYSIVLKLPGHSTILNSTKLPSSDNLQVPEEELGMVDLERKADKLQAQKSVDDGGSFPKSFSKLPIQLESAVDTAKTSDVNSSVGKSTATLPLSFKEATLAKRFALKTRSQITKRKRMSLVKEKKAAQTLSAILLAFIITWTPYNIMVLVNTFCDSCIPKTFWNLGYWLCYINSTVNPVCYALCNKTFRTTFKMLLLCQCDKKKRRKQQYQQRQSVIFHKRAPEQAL

[4] = test system: scopolamine-induced amnesia; assay: Passive avoidance, scopolamine-induced amnesia; format: in vivo; conditions: 90 minutes prior to training
Procedure: Studies were carried out as described previously by Foley et al., (2004) Neuropsychopharmacology. In the passive avoidance task scopolamine administration (1 mg/kg, i.p.) at 6 hours following training rendered animals amnesic of the paradigm. A dose range of 3, 10, and 30 mg/kg (po) free base, administered 90 minutes prior to the training period via oral gavage, was examined.

[5] = target: T4, human muscarinic M1 receptor (Homo sapiens, UniProt P11229); assay: Alphascreen Surefire phospho-ERK1/2 functional assay, M1; format: cell-based
T4 sequence (P11229 1-460): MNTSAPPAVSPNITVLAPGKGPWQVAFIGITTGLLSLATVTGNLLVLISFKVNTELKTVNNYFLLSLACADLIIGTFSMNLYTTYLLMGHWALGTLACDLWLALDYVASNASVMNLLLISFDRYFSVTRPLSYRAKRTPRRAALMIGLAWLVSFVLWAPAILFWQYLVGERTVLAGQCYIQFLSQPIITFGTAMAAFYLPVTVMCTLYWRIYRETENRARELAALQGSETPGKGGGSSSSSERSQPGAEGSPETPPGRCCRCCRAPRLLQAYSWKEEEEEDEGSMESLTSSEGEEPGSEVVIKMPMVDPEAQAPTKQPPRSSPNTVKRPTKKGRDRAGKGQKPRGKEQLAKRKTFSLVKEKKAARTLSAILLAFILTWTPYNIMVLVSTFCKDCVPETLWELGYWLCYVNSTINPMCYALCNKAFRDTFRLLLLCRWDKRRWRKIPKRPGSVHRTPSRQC

Row | Structure (SMILES) | % Emax cf. ACh, M2 ([1]; CHO cells stably expressing human M2, relative to ACh) [%] | % Emax cf. ACh, M4 ([2]; CHO cells stably expressing human M4, relative to ACh, listed as 2-2 Isomer 1) [%] | % Emax cf. ACh, M3 ([3]; CHO cells stably expressing human M3, relative to ACh, listed as 2-2 Isomer 1) [%] | reversal of scopolamine-induced amnesia in passive avoidance ([4]; 3, 10 and 30 mg/kg po free base, scopolamine 1 mg/kg i.p.) | ED50 ([4]; po, scopolamine 1 mg/kg i.p. 6 hours following training, read-out: approximate ED50, reversal of scopolamine-induced amnesia) [mg/kg] | EC50 ([1]; CHO cells stably expressing human M2, read-out: pEC50 M2 (converted)) [µM] | Emax ([1]; CHO, read-out: % Emax cf. ACh, M2, CHO cells stably expressing human M2, relative to ACh) [%] | EC50 ([2]; CHO cells stably expressing human M4, read-out: pEC50 M4 (converted)) [µM] | Emax ([2]; CHO, read-out: % Emax cf. ACh, M4, CHO cells stably expressing human M4, relative to ACh) [%] | EC50 ([5]; CHO cells stably expressing human M1, read-out: pEC50 M1 (converted)) [nM] | Emax ([5]; CHO, read-out: % Emax cf. ACh, M1, CHO cells stably expressing human M1, relative to ACh) [%] | EC50 ([3]; CHO cells stably expressing human M3, read-out: pEC50 M3 (converted)) [µM] | Emax ([3]; CHO, read-out: % Emax cf. ACh, M3, CHO cells stably expressing human M3, relative to ACh) [%]
1 | CCOC(=O)N1C2CCC1CC(N1CCC3(CC1)CNC(=O)C3)C2 (single isomer, unassigned) [Example 2-2 Isomer 1, ethyl 3-(3-oxo-2,8-diazaspiro[4.5]dec-8-yl)-8-azabicyclo[3.2.1]octane-8-carboxylate] | 0 | 53 | 17 | reverse scopolamine-induced amnesia of the paradigm in a dose-dependent manner | ~10 |  |  |  |  |  |  |  | 
2 | CCOC(=O)N1C2CC[C@@H]1C[C@H](N1CCC3(CC1)CC(=O)N(O)C3)C2 [Example 2-24, ethyl (3-endo)-3-(2-hydroxy-3-oxo-2,8-diazaspiro[4.5]dec-8-yl)-8-azabicyclo[3.2.1]octane-8-carboxylate] |  |  |  |  |  | > 20 | 4 | > 20 | 29 | 63.1 | 88 | > 20 | 4
